{
  "source": "ChEMBL document CHEMBL5465560",
  "about": "“Selectivity Literature for EUbOPEN Chemogenomic Library” (2024)",
  "key": {"[1]": {"molecular_target": "T1, Serine/threonine-protein kinase TAO1 (Homo sapiens) (UniProt Q7L7X3)", "T1 sequence (whole entry)": "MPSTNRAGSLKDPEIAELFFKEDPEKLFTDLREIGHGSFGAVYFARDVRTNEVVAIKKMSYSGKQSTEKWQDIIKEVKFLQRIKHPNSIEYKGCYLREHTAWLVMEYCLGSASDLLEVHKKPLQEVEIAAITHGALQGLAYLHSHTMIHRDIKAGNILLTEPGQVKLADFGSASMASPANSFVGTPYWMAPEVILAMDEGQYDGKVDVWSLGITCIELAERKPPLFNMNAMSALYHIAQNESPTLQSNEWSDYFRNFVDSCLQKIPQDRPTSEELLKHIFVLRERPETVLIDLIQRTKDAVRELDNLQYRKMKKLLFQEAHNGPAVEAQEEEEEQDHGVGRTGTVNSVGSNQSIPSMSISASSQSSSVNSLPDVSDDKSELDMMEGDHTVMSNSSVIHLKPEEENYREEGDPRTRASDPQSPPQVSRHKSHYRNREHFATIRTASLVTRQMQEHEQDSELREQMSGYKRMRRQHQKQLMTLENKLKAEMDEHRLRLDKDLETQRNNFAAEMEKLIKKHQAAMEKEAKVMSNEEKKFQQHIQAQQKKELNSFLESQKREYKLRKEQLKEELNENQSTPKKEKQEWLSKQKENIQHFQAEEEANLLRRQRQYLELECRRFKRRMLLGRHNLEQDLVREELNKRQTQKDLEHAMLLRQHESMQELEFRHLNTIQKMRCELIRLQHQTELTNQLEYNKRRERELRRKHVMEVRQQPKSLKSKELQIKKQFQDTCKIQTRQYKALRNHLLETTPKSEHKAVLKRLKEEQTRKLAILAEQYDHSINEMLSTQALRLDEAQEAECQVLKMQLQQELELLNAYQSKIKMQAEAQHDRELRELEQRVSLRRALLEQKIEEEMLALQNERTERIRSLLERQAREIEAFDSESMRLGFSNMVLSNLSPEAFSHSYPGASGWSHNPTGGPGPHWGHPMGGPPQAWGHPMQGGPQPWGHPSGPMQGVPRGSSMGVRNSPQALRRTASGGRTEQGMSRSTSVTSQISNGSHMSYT", "assay": "Selectivity interaction (KinomeScan (DiscoverX)) EUB0000229b TAOK1", "conditions": "at 10 µM"}, "[2]": {"molecular_target": "T2, Serine/threonine-protein kinase DCLK2 (Homo sapiens) (UniProt Q8N568)", "T2 sequence (whole entry)": "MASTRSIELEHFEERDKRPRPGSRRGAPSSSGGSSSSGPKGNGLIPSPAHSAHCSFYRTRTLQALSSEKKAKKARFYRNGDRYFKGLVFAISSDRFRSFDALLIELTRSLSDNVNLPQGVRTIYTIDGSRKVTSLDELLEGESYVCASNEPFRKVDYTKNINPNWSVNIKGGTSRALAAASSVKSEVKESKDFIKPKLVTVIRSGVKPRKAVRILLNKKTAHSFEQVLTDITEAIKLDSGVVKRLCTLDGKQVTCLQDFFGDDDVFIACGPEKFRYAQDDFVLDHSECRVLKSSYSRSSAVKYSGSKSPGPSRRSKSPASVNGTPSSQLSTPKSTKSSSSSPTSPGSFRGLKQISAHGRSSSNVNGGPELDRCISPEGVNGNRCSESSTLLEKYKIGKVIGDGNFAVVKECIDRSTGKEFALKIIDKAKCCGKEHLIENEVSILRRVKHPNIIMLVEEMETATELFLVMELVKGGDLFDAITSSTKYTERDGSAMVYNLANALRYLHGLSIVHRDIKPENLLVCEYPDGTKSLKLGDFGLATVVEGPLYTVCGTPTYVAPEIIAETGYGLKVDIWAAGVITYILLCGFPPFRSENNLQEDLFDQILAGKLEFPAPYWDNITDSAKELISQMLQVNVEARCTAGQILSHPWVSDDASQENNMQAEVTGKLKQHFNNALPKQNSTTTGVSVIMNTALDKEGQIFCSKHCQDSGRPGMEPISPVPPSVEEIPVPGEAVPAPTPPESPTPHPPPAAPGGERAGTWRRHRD", "assay": "Selectivity interaction (Kinase panel (Invitrogen)) EUB0000639a DCLK2", "conditions": "at 200 nM"}, "[3]": {"molecular_target": "T3, Uncharacterized serine/threonine-protein kinase SBK3 (Homo sapiens) (UniProt P0C264)", "T3 sequence (whole entry)": "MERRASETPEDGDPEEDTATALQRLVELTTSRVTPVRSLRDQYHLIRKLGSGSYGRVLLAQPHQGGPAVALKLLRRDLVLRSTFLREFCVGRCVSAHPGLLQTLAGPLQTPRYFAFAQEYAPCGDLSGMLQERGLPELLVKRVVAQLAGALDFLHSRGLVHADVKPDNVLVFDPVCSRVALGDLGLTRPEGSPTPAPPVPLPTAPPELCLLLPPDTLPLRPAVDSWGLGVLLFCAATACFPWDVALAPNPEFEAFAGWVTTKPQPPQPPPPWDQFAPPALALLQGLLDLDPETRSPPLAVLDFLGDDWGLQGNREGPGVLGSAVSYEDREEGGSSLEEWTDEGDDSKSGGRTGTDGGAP", "assay": "Selectivity interaction (KinomeScan (DiscoverX)) EUB0000045b SBK3"}, "[4]": {"tested_on": "Epidermal growth factor receptor (Homo sapiens), P00533 [G719C]", "assay": "(§1) Selectivity interaction (ProQinase) EUB0000171b EGFR"}, "[5]": {"tested_on": "Epidermal growth factor receptor (Homo sapiens), P00533 [G719S]", "sequence (P00533 whole entry G719S)": "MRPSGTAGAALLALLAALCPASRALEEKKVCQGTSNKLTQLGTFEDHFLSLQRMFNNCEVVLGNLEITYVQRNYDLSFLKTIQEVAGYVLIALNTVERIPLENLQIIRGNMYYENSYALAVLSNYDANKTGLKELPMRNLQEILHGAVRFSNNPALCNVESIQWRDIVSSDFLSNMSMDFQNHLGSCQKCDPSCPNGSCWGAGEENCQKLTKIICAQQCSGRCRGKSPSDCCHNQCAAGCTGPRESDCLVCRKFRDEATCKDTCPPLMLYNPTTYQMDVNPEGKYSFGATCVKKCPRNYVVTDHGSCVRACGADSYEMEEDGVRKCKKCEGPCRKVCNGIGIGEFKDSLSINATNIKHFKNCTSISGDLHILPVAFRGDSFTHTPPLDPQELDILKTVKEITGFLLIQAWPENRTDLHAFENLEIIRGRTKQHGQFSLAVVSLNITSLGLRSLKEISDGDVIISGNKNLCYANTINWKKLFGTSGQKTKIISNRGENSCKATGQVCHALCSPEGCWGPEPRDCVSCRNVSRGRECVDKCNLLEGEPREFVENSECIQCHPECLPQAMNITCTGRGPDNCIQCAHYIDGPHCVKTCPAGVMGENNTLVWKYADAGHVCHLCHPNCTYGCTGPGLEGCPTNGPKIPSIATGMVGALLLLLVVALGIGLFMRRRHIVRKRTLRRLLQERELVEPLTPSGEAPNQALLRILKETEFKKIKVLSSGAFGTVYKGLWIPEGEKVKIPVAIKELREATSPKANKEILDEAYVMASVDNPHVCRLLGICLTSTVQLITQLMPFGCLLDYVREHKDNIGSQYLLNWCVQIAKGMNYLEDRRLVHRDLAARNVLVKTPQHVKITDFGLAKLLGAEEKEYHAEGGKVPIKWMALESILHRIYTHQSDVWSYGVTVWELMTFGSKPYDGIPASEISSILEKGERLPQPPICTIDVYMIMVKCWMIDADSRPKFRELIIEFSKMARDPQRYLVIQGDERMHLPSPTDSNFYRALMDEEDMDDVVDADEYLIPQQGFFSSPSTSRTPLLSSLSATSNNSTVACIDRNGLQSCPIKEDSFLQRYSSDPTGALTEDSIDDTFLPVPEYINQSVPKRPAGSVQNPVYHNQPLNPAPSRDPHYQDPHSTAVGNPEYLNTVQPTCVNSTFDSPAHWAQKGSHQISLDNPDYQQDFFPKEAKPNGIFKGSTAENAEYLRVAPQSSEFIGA", "assay": "as §1"}, "[6]": {"tested_on": "Epidermal growth factor receptor (Homo sapiens), P00533 [L858R,T790M]", "sequence (P00533 whole entry T790M/L858R, looked up)": "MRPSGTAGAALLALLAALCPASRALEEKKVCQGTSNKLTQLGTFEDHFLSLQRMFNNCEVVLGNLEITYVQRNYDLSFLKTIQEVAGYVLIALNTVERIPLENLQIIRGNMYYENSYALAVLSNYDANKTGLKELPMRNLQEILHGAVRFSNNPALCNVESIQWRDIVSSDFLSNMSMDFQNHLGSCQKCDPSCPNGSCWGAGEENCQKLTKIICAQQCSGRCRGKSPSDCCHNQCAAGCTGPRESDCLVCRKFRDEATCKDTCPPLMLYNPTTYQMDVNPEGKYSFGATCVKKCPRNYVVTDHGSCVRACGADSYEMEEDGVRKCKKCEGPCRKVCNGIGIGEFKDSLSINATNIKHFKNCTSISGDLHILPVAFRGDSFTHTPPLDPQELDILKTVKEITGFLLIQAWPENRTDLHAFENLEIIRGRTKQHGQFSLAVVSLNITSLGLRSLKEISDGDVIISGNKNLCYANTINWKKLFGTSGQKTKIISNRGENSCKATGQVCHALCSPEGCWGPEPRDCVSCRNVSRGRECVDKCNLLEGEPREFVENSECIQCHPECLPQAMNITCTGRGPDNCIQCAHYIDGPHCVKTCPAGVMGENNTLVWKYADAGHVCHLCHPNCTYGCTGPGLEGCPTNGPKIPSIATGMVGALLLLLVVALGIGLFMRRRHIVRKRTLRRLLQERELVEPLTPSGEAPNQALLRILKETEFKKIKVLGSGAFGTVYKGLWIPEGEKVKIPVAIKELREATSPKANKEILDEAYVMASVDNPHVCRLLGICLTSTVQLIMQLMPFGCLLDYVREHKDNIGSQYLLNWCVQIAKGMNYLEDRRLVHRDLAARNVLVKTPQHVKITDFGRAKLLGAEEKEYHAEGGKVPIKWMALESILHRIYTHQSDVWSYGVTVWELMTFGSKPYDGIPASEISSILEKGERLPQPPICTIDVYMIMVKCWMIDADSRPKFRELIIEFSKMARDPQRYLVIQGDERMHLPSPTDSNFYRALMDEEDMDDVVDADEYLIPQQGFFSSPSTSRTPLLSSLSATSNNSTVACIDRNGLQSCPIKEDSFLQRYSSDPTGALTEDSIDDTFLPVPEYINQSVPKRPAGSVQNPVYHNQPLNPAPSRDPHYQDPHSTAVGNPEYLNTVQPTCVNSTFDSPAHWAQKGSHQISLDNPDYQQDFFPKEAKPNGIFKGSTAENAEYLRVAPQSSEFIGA", "assay": "as §1"}, "[7]": {"tested_on": "Epidermal growth factor receptor (Homo sapiens), P00533 [L858R]", "sequence (P00533 whole entry L858R)": "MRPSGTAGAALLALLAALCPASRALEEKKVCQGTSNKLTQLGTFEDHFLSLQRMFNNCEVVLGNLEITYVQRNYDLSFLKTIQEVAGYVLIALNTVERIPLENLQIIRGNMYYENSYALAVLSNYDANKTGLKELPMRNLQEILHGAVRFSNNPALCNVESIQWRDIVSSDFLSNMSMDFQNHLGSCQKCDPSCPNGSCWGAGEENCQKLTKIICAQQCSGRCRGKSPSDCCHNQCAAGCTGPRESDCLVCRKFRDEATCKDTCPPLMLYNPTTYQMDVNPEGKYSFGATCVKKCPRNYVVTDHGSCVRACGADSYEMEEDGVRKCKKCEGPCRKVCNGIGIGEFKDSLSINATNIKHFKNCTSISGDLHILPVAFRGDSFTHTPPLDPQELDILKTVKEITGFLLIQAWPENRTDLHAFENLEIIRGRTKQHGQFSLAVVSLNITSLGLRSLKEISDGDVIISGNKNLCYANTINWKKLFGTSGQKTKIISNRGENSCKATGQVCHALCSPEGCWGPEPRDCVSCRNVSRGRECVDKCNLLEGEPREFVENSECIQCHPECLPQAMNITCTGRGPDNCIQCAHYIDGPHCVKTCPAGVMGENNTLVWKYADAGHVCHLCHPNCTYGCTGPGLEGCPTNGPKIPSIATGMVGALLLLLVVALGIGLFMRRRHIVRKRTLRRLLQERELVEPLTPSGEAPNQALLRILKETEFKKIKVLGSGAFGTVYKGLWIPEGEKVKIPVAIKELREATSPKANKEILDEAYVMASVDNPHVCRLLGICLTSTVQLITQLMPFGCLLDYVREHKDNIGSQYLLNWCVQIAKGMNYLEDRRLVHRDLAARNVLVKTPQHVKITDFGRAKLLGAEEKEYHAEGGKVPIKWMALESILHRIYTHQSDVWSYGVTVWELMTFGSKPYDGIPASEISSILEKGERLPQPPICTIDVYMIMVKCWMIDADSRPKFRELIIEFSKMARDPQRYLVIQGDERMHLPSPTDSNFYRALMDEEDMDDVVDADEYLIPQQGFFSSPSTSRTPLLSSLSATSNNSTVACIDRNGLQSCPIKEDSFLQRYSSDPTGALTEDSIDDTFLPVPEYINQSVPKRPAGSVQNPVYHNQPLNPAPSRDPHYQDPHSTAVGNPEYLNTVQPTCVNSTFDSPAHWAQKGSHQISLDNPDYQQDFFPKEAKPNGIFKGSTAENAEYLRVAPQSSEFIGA", "assay": "as §1"}, "[8]": {"tested_on": "Epidermal growth factor receptor (Homo sapiens), P00533 [L861Q]", "sequence (P00533 whole entry L861Q)": "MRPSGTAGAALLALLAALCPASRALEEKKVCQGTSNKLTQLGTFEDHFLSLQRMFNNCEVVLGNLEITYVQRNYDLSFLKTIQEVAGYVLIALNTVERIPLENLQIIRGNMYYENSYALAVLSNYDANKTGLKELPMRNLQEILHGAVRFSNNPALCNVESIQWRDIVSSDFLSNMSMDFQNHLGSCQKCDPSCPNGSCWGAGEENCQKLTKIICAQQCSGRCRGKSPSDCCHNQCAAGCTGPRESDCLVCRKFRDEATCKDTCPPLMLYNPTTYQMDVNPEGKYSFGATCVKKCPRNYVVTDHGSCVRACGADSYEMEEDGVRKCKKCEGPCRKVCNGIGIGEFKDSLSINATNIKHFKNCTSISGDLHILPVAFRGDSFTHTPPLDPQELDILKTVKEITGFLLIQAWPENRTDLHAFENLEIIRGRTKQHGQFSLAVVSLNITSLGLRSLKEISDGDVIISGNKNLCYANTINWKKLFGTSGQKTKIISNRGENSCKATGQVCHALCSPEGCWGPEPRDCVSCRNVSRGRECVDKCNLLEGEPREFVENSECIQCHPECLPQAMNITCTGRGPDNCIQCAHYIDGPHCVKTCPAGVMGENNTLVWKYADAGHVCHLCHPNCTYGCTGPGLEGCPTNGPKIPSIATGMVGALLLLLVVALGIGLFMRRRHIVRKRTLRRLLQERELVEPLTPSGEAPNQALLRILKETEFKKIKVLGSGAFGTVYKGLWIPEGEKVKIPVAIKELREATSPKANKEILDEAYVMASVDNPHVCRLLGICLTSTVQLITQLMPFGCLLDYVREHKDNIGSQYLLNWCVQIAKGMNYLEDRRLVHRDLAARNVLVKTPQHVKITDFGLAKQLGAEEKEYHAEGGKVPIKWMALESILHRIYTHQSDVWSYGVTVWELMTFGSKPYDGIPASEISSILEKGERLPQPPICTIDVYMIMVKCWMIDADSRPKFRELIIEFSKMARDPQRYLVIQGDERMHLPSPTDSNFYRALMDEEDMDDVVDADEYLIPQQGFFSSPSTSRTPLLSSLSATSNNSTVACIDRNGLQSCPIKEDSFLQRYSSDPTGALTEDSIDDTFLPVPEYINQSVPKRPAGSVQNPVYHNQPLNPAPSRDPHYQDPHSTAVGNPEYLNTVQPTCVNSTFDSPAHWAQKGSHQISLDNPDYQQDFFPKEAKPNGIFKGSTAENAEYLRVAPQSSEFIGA", "assay": "as §1"}, "[9]": {"tested_on": "Epidermal growth factor receptor (Homo sapiens), P00533 [T790M]", "assay": "as §1"}, "[10]": {"tested_on": "Epidermal growth factor receptor (Homo sapiens), P00533 [UNDEFINED MUTATION]", "assay": "as §1"}, "[11]": {"molecular_target": "Epidermal growth factor receptor (Homo sapiens, UniProt P00533)", "assay": "as §1"}},
  "data": [
    {"smiles": "COc1cc(N(C)c2ccnc3ccc(C(F)(F)F)cc23)cc(OC)c1OC", "values": [
      {"measurement": "% binding", "setting": "[1]", "value": 65, "unit": "%"}
    ]},
    {"smiles": "CC[C@@H]1[C@H](F)C(=O)N[C@@H]1COc1nccc2cc(C(N)=O)c(OC)cc12", "note": "[ZIMLOVISERTIB]", "values": [
      {"measurement": "% of inhibition", "setting": "[2]", "value": 24.9, "unit": "%"}
    ]},
    {"smiles": "C=CC(=O)Nc1cc(-n2c(=O)ccc3cnc4ccc(-c5ccc(NS(C)(=O)=O)cc5)cc4c32)ccc1C", "values": [
      {"measurement": "% of control", "setting": "[3]; at 1 µM", "value": 100, "unit": "%"},
      {"measurement": "% of control", "setting": "[3]; at 10 µM", "value": 100, "unit": "%"}
    ]},
    {"smiles": "C=CC(=O)Nc1cccc(C(=O)Nc2ccc(Nc3cc(-c4[nH]c(SC)nc4C)ccn3)cc2)c1", "values": [
      {"measurement": "% of control", "setting": "[4]; at 1 µM", "value": 96, "unit": "%"},
      {"measurement": "% of control", "setting": "[4]; at 5 µM", "value": 75, "unit": "%"},
      {"measurement": "% of control", "setting": "[5]; at 1 µM", "value": 88, "unit": "%"},
      {"measurement": "% of control", "setting": "[5]; at 5 µM", "value": 97, "unit": "%"},
      {"measurement": "% of control", "setting": "[6]; at 1 µM", "value": 96, "unit": "%"},
      {"measurement": "% of control", "setting": "[6]; at 5 µM", "value": 96, "unit": "%"},
      {"measurement": "% of control", "setting": "[7]; at 1 µM", "value": 95, "unit": "%"},
      {"measurement": "% of control", "setting": "[7]; at 5 µM", "value": 83, "unit": "%"},
      {"measurement": "% of control", "setting": "[8]; at 1 µM", "value": 104, "unit": "%"},
      {"measurement": "% of control", "setting": "[8]; at 5 µM", "value": 91, "unit": "%"},
      {"measurement": "% of control", "setting": "[9]; at 1 µM", "value": 91, "unit": "%"},
      {"measurement": "% of control", "setting": "[9]; at 5 µM", "value": 84, "unit": "%"},
      {"measurement": "% of control", "setting": "[10]; at 1 µM", "value": 115, "unit": "%"},
      {"measurement": "% of control", "setting": "[10]; at 5 µM", "value": 88, "unit": "%"},
      {"measurement": "% of control", "setting": "[11]; at 1 µM", "value": 108, "unit": "%"},
      {"measurement": "% of control", "setting": "[11]; at 5 µM", "value": 101, "unit": "%"}
    ]}
  ]
}
